This is an account of results in US20120252773A1, “Method and composition for inhibiting cell proliferation and angiogenesis” (priority 2005, published 2012).

In series [1] the test system is PC-3 human prostate tumors. Kind of series: PC-3 xenograft nude mouse model, tumor growth. In kind it is in vivo. As to the method:
Compound (2) was evaluated using the xenograft nude Balb-C athymic mouse model for its in vivo anti-tumor activity against PC-3 human prostate tumors. The mice were obtained from Taconic Laboratories. The experiment was conducted by subcutaneously implanting PC-3 cells to the right flanks of BALB-C athymic nude mice (Taconic Laboratories) followed by observing tumor growth daily. There were 8 mice in the control and each treatment groups. When tumor volumes reached 70-100 mm^3, drug delivery was initiated at 3 dose levels of (2). The compound was delivered orally as follows: 0 mg/kg to the control group, 10 mg/kg to one treatment group, and 30 mg/kg to a second treatment group, each once daily for 28 days; and 100 mg/kg to a third treatment group, once weekly. Tumor volumes were measured twice weekly and body weights once weekly.
Mice were treated as in Example 7, except that one group received no oral (2), but instead received 7.5 mg/kg i.p. paclitaxel (Sigma) when the tumors reached 70-100 mm^3, while another group received both (2) orally at 10 mg/kg and paclitaxel i.p. at 7.5 mg/kg.

The target of series [2] is T1, Human recombinant estrogen receptor-β (ER-β) (Homo sapiens, UniProt Q92731).
T1 construct: purchased PanVera Corporation (Madison, Wis.)
Description: Estrogen receptor binding assay, 3H-17β-estradiol displacement, ER-β. As to conditions: 4° C. overnight. As to the method: Human recombinant estrogen receptor-α (ER-α) and estrogen receptor-β (ER-β) were obtained from PanVera Corporation (Madison, Wis.) to conduct the binding assay. To measure the binding affinity of (2), various concentrations of (2) or 17β-estradiol were incubated with either ER-α or ER-β receptor in the presence of a fixed amount of ^3H-17β-estradiol at 4° C. overnight. At the end of the incubation, the free- and bound-3H-estradiol were separated following the instructions provided by the manufacturer using hydroxylapatite.

In series [3] the test system is HIF-1α protein in PC-3 prostate cancer cells. Description: HIF-1α protein expression by immunoblotting, PC-3 cells. In kind it is cell-based, human. As to conditions: 6 h. As to the method: Hypoxia experiments were performed in either of two ways. To produce a very low ambient oxygen concentration (effectively anoxia), we used a protocol in which cells were incubated in a 5% CO2-air atmosphere at 37° C. overnight and then placed in aluminum gas-exchange chambers maintained at 37° C. (Laderoute K R et al. Mol Cell Biol 22: 2515-2523, (2002); Laderoute K R et al. Mol Cell Biol 24: 4128-4137, (2004)). The chambers containing the cells were then placed in a 37° C. circulating water bath and the original atmosphere was repeatedly exchanged with 5% CO2-95% N2 using a manifold equipped with a vacuum pump and a gas cylinder. Atmospheric oxygen partial pressure (pO2) values of less than or equal to 0.01% (relative to air at pO2 of about 21%) can be achieved inside the chambers using this system. Following various hypoxic exposures, the chambers were opened an anaerobic glove box (Bactron X, Sheldon Manufacturing Inc., Cornelius, Oreg.; attached to a cylinder containing 5% CO2-95% N2) to prepare cell lysates without significant reoxygenation. All manipulations of hypoxic cells were performed in the anaerobic glove box. Atmospheric oxygen levels in both the chambers and the glove box have been measured and calibrated using a polarographic oxygen electrode (Oxygen Sensors, Inc., Norristown, Pa.). Hypoxia experiments involving a pO2 of 1% were performed by equilibrating the glove box with an atmosphere of 1% O2 5% CO2 […] held at 37° C. with a circulating fan. Cells were incubated inside a humidified space in the glove box and the medium on the cells was gently and continually agitated by using a rotary shaker. For these experiments, we used RAW 264.7 immortalized mouse macrophages as normal control cells, PC-3 prostate cancer cells, and MDA-MB-231 breast cancer cells, all available from ATCC.
We used immunoblotting to evaluate the experiments. Nuclear lysates were used to detect HIF-1α protein by immunoblotting (Murphy B J et al. Biochem Biophys Res Commun (In Press): 2005). Briefly, cells were placed on ice in air or on Super Ice® cold packs in the anaerobic glove box and the medium was removed. […] After spinning at 9,000×g for 5 min at 4° C., the protein concentrations of the supernatants were determined by using a bicinchoninic acid assay (Pierce Biotechnology). […] Primary antibody binding was detected and visualized by using the ECL Plus Western Blotting Detection System (Amersham Pharmacia Biotech) according to the supplier's instructions. HIF-1α protein was detected by using an anti-HIF-1α monoclonal antibody (Novus Biologicals, Cat. No. NB100-123; diluted 1:500) and a horseradish peroxidase-conjugated anti-mouse IgG secondary antibody (Santa Cruz Biotechnology, Cat. No. sc-2062; diluted 1:20,000). […]

T1 sequence (Q92731 whole entry): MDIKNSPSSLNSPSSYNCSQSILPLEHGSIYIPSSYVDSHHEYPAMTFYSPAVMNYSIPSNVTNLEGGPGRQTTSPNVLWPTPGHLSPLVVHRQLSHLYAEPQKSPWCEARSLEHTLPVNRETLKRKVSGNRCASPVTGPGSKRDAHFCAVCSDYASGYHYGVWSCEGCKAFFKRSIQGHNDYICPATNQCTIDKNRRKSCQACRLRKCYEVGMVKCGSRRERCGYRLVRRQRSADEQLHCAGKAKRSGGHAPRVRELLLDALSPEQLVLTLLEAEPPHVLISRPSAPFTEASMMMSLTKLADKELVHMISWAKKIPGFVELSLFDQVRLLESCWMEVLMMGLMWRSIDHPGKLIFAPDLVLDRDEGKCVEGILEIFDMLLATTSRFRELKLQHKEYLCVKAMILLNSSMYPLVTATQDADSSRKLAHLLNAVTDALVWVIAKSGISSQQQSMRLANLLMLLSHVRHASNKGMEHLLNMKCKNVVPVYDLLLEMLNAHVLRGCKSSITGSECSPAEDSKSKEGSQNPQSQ

Turning to `C[C@@H]1Cc2cc(O)ccc2C2CCC3(C)/C(=C/COCCN(C)C)CCC3C21` (stereo partly drawn) [Compound (2), (E)-3-Hydroxy-7α-methyl-21-[(2-dimethylamino)ethoxy]-19-norpregna-1,3,5(10),17(20)-tetraene], the tumor growth rate result in series [1] (10 mg/kg oral once daily for 28 days), in series [1] (30 mg/kg oral once daily for 28 days) and in series [1] (100 mg/kg oral once weekly) was “markedly decreased growth rates” throughout. Moreover, the “reduction of microvascularization compared to control group” value in series [1] (30 mg/kg oral) is given as “about 50%”. Moreover, in series [2], the “binding affinity (relative to non-radiolabeled estradiol, 50% displacement of 3H-estradiol)” value came to 64. Further, the HIF-1α protein expression entry in series [3] (PC-3, anoxic, hypoxic and normoxic conditions, less than or equal to 5 μM) is listed as “potent inhibitory effect”. In addition, the “cytotoxicity toward PC-3 cells” value in series [3] (PC-3, less than or equal to 5 μM) is “without obvious cytotoxicity”.
